Data reported in PMC5104457, “ATP-Competitive MLKL Binders Have No Functional Impact on Necroptosis” (PLoS ONE, 2016).
pEC50, pIC50: −log10 of the molar value. Read-outs that look alike come from different tables or passages of the source.

Tests used:
kinase domain of RIPK1 = biological target: T1, kinase domain of RIPK1 (Homo sapiens, UniProt Q13546); assay: Differential scanning fluorimetry (thermal shift), RIPK1 kinase domain; assay type: binding; settings: 10 μM compound, 1 μM protein, average of triplicates
T1 construct: The kinase domain of RIPK1; made in house
T1 sequence (Q13546 17-289 limits assumed): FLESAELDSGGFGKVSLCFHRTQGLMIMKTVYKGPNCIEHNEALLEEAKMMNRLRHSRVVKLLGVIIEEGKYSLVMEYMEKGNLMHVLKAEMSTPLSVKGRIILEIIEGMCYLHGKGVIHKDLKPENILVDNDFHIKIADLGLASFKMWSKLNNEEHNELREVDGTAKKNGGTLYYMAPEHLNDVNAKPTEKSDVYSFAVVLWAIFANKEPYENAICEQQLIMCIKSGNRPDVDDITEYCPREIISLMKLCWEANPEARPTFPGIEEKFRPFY
Procedure: (§1) To measure the thermal stabilization of the proteins upon compound binding we employed differential scanning fluorimetry (DSF). The kinase domain of RIPK1 and the N-terminal domain HSP90α were expressed and purified as previously described. The pseudokinase MLKL-1, RIPK1 and Hsp90 were melted at 1μM final concentrations in 25mM HEPES pH 8.0, 250mM NaCl and 2.5mM DTT. Compounds were added to a final concentration of 10 μ M with a final DMSO concentration of 5%. The complexes were incubated on ice for 30 minutes. Protein Thermal Shift dye (Life Technologies) was added to 1X. The fluorescence intensities were measured using a Quantstudio real-time PCR system (Life Technologies) with excitation at 470 nm and emission at 586 nm. The samples, measured in triplicate, were heated from 25 to 85°C with a heating rate of […].

pseudokinase MLKL-1 = biological target: T2, pseudokinase MLKL-1 (Homo sapiens, UniProt Q8NB16); assay: Differential scanning fluorimetry (thermal shift), MLKL pseudokinase domain; assay type: binding; settings: 10 μM compound, 1 μM protein, average of triplicates; read-out: MLKL Pseudo-kinase thermal shift at 10 μM
T2 construct: sub-cloning residues 191 to 471 of the pseudokinase domain of human MLKL cDNA; His6 (thrombin cleavable) (N); made in house; host or cells: Escherichia coli BL21 (DE3)
T2 sequence (Q8NB16 191-471): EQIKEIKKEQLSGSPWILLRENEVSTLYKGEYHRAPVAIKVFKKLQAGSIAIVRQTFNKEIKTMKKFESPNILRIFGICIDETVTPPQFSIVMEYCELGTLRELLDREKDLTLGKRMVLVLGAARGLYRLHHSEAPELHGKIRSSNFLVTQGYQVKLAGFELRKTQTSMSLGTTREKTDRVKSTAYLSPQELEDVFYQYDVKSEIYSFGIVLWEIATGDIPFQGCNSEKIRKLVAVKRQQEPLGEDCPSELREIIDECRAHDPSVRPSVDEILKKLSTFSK
From the text: MLKL-1 was constructed by sub-cloning residues 191 to 471 of the pseudokinase domain of human MLKL cDNA into a pET15b vector with a thrombin cleavable N-terminal six histidine fusion tag (His-MLKL-1). MLKL-2 had the same protein boundaries and fusion tag system as MLKL-1 but the dual mutations E366A and K367A were introduced using site directed mutagenesis and was expressed in the same vector (His-MLKL-2).
as §1

FADD (-/-) Jurkat cells = assay: Necroptosis assay: rescue from TNF-α induced cell death; assay type: cell-based; settings: Homo sapiens; for pIC50: read-out: Necroptosis cell IC50
Procedure: Necroptosis assays were performed at Charles River Laboratories (United Kingdom) and at Biogen. […] On the day of the experiment, cells were counted using Nexcelom Bioscience Cell Meter Vision and pelleted by centrifugation. Cell pellets were resuspended in fresh medium at 500,000 cells per mL and transferred to assay-ready compound plates prepared in 384-well white TC plates (Greiner #781080) at 20μl cells per well. Cells and compound were incubated at room temperature for 30 minutes followed by +/- stimulation with 15ng/ml TNF-α (Cell signalling Technologies #8902LF) overnight at 37°C. In the morning, plates were equilibrated to room temperature for 30 minutes and 25μl of CellTiter-Glow (CellTiter-Glo 2.0 Assay, Promega # G9243) diluted 1:4 in PBS was added to each well and allowed to incubate for 10 minutes at room temperature. Luminescence was read on an Envision plate reader (Perkin Elmer).
TNF-α added to these cells induces necroptosis or cell death. The term “Rescue” refers to the ability of a compound to prevent loss of cell viability in the presence of TNF. Definitions of the presence or absence of compound or TNF stimulation in the wells that were used to calculate degree of rescue or viability is defined in Table 1.
100% percent rescue is defined as the value of the “no TNF” wells minus the value of wells treated with “TNF”.
Percent Rescue is then the ratio of the intensity value of the experimental “well” minus the value of “TNF” treated wells divided by the overall difference between the value of “no TNF” treated wells and the value of “TNF” treated wells.
%rescue=((well - TNF)/(no TNF - TNF))x100

403 non-mutant kinases = assay: DiscoverX kinase selectivity panel; assay type: binding; settings: 1 μM compound
From the text: We then characterized several compounds that were expected to bind to MLKL across a broad panel of 403 non-mutant kinases at DiscoverX.

[1] = system: RIPK3 phosphorylation of MLKL in 293T cells; assay: MLKL phosphorylation assay (MSD), RIPK3-dependent phospho Ser358; assay type: cell-based, human; settings: 293T cells with GFP-MLKL and RIPK3-mCherry, 30 min compound, normalized to DMSO
Procedure: The cDNA clones of human MLKL (RC213152) and human RIPK3 (RC209549) were purchased from Origene. To generate GFP-MLKL and RIPK3-mCherry, coding sequences of the corresponding cDNA sequences were PCR amplified and cloned into Biogen’s mammalian expression vector.
293T cells grown in 10 cm plates were transfected with GFP-MLKL alone or both GFP-MLKL and RIPK3-mCherry plasmids. After 24 hours, cells were harvested and replated into poly D lysine coated 96W plate with 20,000 cells/ml. Four hours later, cells were treated with MLKL compounds for 30 min and incubated at 37°C. Thirty minutes later, the media was removed and cells were lysed in 150μl of Cell lysis buffer (Cell Signaling, MA) containing both protease and phosphatase inhibitors. The lysates were transferred to 96 well MSD plates (Meso Scale Discovery, MD) that were precoated with anti-mouse MLKL antibody H00197259-M02, 3B2, Novus Biologicals, CO), and incubated overnight at 4°C. After washing the plates three times with 1x MSD wash buffer (50mM TRIS-HCl, 150mM NaCl, 0.02% Tween 20, pH7.5), 100 μl of 0.5μg/ml of rabbit-anti-MLKL phospho Ser358 (Abcam AB187091) was added to each well. The plates were incubated for 2 hours at room temperature. After three washes with MSD wash buffer, 100 μ l of 0.5ug/ml of SULFO-tag labeled anti-rabbit IgG was added to each well and incubated for 1 hour at room temperature. After three washes, 1x Read bufferT (Meso Scale Discovery, MD) was added and the electrochemiluminescence (ECL) was measured with a MSD Sector Imager 600.

Structure (SMILES) | ΔTm at 10 µM (kinase domain of RIPK1) | ΔTm at 10 µM (pseudokinase MLKL-1) | pIC50 (FADD (-/-) Jurkat cells; Jurkat) | pEC50 (FADD (-/-) Jurkat cells; FADD deficient Jurkat cells, TNF stimulation) | number of kinases inhibited out of 403 (403 non-mutant kinases) | effect on RIPK3-dependent phosphorylation of MLKL (phospho Ser358, in words) ([1]; listed as Cpd 1) | pIC50 (FADD (-/-) Jurkat cells; FADD deficient Jurkat cells, TNF-α 15 ng/ml overnight, average of duplicates) | number of kinases inhibited out of 403 (403 non-mutant kinases; listed as Cpd 4) | effect on RIPK3-dependent phosphorylation of MLKL (phospho Ser358, in words) [1]
CN(c1ccc(NC(=O)Nc2ccc(OC(F)(F)F)cc2)cc1)c1ccnc(Nc2cccc(S(N)(=O)=O)c2)n1 [cpd 1, reference compound] | 5 to 6 °C | 5 to 6 °C | 5.73 | 5.73 | 56 | does not impact its phosphorylation | – | – | –
Nc1nccnc1C(=O)O[C@@H](C(=O)Nc1ccc(F)cc1)c1ccccc1 [cpd 4, 3-Amino-pyrazine-2-carboxylic acid (R)-(4-fluorophenylcarbamoyl)-phenyl-methyl ester] | -0.15 °C | 4 °C | – | – | 1 | – | < 4.40 | none | does not impact its phosphorylation
